Reference: patent EP4813993A1, “COMPOUND, PREPARATION METHOD THEREFOR, AND USE THEREOF” (Sichuan Kelun Pharmaceutical Research Institute Co., Ltd., priority 2023, dated 2025)

Molecular target: T1, Nav1.8 channels (Homo sapiens, UniProt Q9Y5Y9)
T1 construct: expressed in transfected cells
Experiment: Manual patch-clamp, current of stably overexpressed Nav1.8 channels (resting state voltage program)
Assay type: cell-based
Conditions: for inhibition at 0.001 µM: concentration of 1 nM; for inhibition at 0.001 µM / inhibition at 0.01 µM: read-out: Inhibition rate %; for inhibition at 0.01 µM: concentration of 10 nM
Experimental: Experimental Example 1: Effects of test substances on current of stably overexpressed Nav1.8 channels monitored via manual patch-clamp technique
Test compounds were dissolved in dimethyl sulfoxide (DMSO).
The extracellular fluid was as follows: 140 mM NaCl, 3.5 mM KCl, 1 mM MgCl2•6H2O, 2 mM CaCl2•2H2O, 10 mM D-Glucose, 10 mM HEPES, 1.25 mM NaH2PO4•2H2O; the pH was adjusted to 7.4 with NaOH. The intracellular fluid was as follows: 50 mM CsCl, 10 mM NaCl, 10 mM HEPES, 60 mM CsF, 20 mM EGTA; the pH was adjusted to 7.2 with CsOH.
2. Experimental materials and instruments
• 1) patch-clamp amplifier: EPC 10 (HEKA) • 2) micromanipulator: MP225 (Sutter Instrument) • 3) inverted microscope: MF53 (Mshot) • 4) micropipette puller: P97 (Sutter Instrument) • 5) capillary glass tube: BF150-86-10 (Sutter Instrument)
3. Experimental procedures
• 1) After the compounds were prepared into solutions with specified concentrations, the solutions were sequentially added to the pipeline of the drug delivery system and labeled. • 2) The cell climbing coverslip was placed in the recording chamber, the appropriate cells were selected under the inverted microscope, and the position of the drug delivery tip was adjusted. • 3) A capillary glass tube was pulled into a suitable recording electrode using the micropipette puller, and then the electrode filled with the intracellular fluid was mounted in the microelectrode holder. The micromanipulator was adjusted under the inverted microscope to allow the recording electrode to contact the cell, and negative pressure was applied to the electrode to form a high-resistance seal. At this time, fast capacitance compensation was performed, and then the application of negative pressure was continued to break the cell membrane, forming a whole-cell recording mode. Finally, slow capacitance compensation was performed, and related parameters were recorded. • 4) After the cell current stabilized, administration was started. Each concentration of the drug was applied for five minutes or until the current stabilized before proceeding to monitor the next concentration. The drug solutions were administered via gravity-fed delivery, flowing through the recording chamber to act on the cells in an ascending order of concentration (from low to high). A peristaltic pump was employed for solution exchange in the recording process.
4 Test voltage program (resting state) and results
After the formation of the whole-cell seal, the cell voltage was clamped at -120 mV, followed by depolarization to 0 mV using a square-wave pulse with a duration of 50 ms to elicit Nav1.8 currents. This procedure was repeated every 20 s to monitor the maximum current induced by the square wave. After the current stabilized, the test compounds were administered. Once the response stabilized, the intensity of the current block was calculated.

T1 sequence (Q9Y5Y9 whole entry): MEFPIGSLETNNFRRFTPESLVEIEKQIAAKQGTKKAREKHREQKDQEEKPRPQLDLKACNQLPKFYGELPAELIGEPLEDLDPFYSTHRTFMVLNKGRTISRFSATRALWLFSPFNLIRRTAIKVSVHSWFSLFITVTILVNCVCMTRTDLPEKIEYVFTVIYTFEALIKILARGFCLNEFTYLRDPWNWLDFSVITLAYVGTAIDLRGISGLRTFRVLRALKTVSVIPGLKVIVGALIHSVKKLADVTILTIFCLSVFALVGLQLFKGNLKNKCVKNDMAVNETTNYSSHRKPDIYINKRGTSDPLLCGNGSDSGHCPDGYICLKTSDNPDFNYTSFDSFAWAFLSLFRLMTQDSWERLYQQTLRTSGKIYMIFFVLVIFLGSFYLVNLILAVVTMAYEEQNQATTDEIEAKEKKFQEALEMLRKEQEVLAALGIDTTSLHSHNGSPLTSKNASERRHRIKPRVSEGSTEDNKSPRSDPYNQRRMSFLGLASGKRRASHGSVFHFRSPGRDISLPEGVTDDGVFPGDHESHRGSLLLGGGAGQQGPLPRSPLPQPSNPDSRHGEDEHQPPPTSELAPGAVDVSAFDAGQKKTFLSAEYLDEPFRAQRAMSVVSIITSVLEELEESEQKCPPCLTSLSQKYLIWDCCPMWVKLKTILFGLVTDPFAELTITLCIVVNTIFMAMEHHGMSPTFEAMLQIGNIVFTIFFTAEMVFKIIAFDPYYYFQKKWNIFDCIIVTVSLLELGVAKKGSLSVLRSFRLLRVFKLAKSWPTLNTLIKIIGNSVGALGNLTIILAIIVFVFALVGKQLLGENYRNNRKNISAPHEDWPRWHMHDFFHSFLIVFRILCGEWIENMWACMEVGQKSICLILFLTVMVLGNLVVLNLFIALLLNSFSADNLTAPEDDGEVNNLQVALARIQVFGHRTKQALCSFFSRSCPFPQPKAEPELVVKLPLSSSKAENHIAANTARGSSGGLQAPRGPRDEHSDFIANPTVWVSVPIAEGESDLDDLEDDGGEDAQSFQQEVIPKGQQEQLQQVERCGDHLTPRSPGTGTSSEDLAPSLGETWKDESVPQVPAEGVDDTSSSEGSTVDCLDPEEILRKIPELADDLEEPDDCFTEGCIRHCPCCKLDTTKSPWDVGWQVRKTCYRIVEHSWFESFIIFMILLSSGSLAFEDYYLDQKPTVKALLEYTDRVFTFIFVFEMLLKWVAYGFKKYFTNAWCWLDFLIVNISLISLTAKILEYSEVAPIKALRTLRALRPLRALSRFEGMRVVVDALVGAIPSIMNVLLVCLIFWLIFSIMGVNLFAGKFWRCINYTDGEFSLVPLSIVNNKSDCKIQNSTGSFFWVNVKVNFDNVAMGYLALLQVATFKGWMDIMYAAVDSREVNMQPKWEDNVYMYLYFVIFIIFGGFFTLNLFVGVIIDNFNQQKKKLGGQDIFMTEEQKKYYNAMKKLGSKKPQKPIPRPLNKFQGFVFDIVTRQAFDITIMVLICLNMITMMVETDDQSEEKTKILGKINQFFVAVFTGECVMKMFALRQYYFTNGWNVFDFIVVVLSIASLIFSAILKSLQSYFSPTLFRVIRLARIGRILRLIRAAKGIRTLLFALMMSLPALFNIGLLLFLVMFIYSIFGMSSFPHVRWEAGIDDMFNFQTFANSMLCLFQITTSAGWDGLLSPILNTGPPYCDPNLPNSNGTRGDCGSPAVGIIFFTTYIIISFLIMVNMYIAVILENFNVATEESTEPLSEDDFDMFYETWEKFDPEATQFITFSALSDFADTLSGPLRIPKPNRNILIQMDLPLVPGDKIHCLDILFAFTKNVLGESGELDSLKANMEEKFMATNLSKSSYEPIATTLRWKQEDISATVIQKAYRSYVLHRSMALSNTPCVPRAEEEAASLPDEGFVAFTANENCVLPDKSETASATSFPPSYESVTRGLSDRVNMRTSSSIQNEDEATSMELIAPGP

| Structure (SMILES) | inhibition at 0.001 µM [%] | inhibition at 0.01 µM [%] | also measured |
| --- | --- | --- | --- |
| [2H][C@@]1(C(=O)Nc2csc(B(O)O)c2)S[C@@](C)(C(F)(F)F)C[C@H]1c1ccc(F)c(F)c1OC [Compound 50-A, (4-((2R,3S,5R)-3-(3,4-difluoro-2-methoxyphenyl)-5-methyl-5-(trifluoromethyl)tetrahydrothiophene-2-carboxamido-2-d)thiophen-2-yl)boronic acid] | – | 80.9 | – |
| COc1c(C2CC(C)(C(F)(F)F)SC2C(=O)Nc2ccc(B(O)O)cc2)ccc(F)c1F (stereo not drawn) [Compound 82, (4-(3-(3,4-difluoro-2-methoxyphenyl)-5-methyl-5-(trifluoromethyl)tetrahydrothiophene-2-carboxamido)phenyl)boronic acid] | – | 81.1 | – |
| COc1c(C2CC(C)(C(F)(F)F)SC2C(=O)Nc2csc(B(O)O)c2)ccc(F)c1F (stereo not drawn) [Compound 48, (4-(3-(3,4-difluoro-2-methoxyphenyl)-5-methyl-5-(trifluoromethyl)tetrahydrothiophene-2-carboxamido)thiophen-2-yl)boronic acid] | – | 79.8 | – |
| COc1c(C2C(C(=O)Nc3ccnc(C(N)=O)c3)SC(C)(C(F)(F)F)C2C)ccc(F)c1F (stereo not drawn) [Compound 136, 4-(3-(3,4-difluoro-2-methoxyphenyl)-4,5-dimethyl-5-(trifluoromethyl)tetrahydrothiophene-2-carboxamido)picolinamide] | 61.9 | – | – |
| COc1c([C@@H]2C[C@](C)(C(F)(F)F)S[C@H]2C(=O)Nc2cccc(S(=O)(=O)NCCN)c2)ccc(F)c1F [a-45-A, (2R,3S,5R)-N-(3-(N-(2-aminoethyl)sulfamoyl)phenyl)-3-(3,4-difluoro-2-methoxyphenyl)-5-methyl-5-(trifluoromethyl)tetrahydrothiophene-2-carboxamide] | – | – | IC50: 0.024 nM |
| COc1c(C2CC(C)(C(F)(F)F)SC2C(=O)Nc2ccn3nnnc3c2)ccc(F)c1F (stereo not drawn) [Compound 203, 3-(3,4-difluoro-2-methoxyphenyl)-5-methyl-N-(tetrazolo[1,5-a]pyridin-7-yl)-5-(trifluoromethyl)tetrahydrothiophene-2-carboxamide] | 80.4 | – | – |
| COc1c(C2CC(C)(C(F)(F)F)SC2C(=O)Nc2ccc(F)c(B(O)O)c2)ccc(F)c1F (stereo not drawn) [Compound 19, (5-(3-(3,4-difluoro-2-methoxyphenyl)-5-methyl-5-(trifluoromethyl)tetrahydrothiophene-2-carboxamido)-2-fluorophenyl)boronic acid] | – | – | IC50: 0.33 nM |
| C=CC(=O)Nc1cc(NC(=O)[C@@H]2S[C@@](C)(C(F)(F)F)C[C@H]2c2ccc(F)c(F)c2OC)ccn1 [Compound 252-A, (2R,3S,5R)-N-(2-acrylamidopyridin-4-yl)-3-(3,4-difluoro-2-methoxyphenyl)-5-methyl-5-(trifluoromethyl)tetrahydrothiophene-2-carboxamide] | 62.7 | – | – |
| [2H]C1(C(=O)Nc2ccc(F)c(B(O)O)c2)SC(C)(C(F)(F)F)CC1c1ccc(F)c(F)c1OC (stereo not drawn) [Compound 20-A, (5-(3-(3,4-difluoro-2-methoxyphenyl)-5-methyl-5-(trifluoromethyl)tetrahydrothiophene-2-carboxamido-2-d)-2-fluorophenyl)boronic acid] | – | 87.9 | – |
| COc1c([C@@H]2C[C@](C)(C(F)(F)F)S[C@H]2C(=O)Nc2csc(B(O)O)c2)ccc(F)c1F [Compound 48-A, (4-((2R,3S,5R)-3-(3,4-difluoro-2-methoxyphenyl)-5-methyl-5-(trifluoromethyl)tetrahydrothiophene-2-carboxamido)thiophen-2-yl)boronic acid] | – | 91.5 | – |
| COc1c([C@@H]2C[C@](C)(C(F)(F)F)S[C@H]2C(=O)Nc2ccc(F)c(CO)c2)ccc(F)c1F [Compound 254-A, (2R,3S,5R)-3-(3,4-difluoro-2-methoxyphenyl)-N-(4-fluoro-3-(hydroxymethyl)phenyl)-5-methyl-5-(trifluoromethyl)tetrahydrothiophene-2-carboxamide] | 76.8 | – | – |
| COc1c([C@@H]2C[C@](C)(C(F)(F)F)S[C@H]2C(=O)Nc2ccc(C(=O)O)c(O)c2)ccc(F)c1F [Compound 226-A, 4-((2R,3S,5R)-3-(3,4-difluoro-2-methoxyphenyl)-5-methyl-5-(trifluoromethyl)tetrahydrothiophene-2-carboxamido)-2-hydroxybenzoic acid] | 32.2 | – | – |
| COc1c(C2CC(C)(C)SC2C(=O)Nc2ccnc(C(N)=O)c2)ccc(F)c1F (stereo not drawn) [Compound 134, 4-(3-(3,4-difluoro-2-methoxyphenyl)-5,5-dimethyltetrahydrothiophene-2-carboxamido)picolinamide] | – | 76.5 | – |
| COc1c(C2CC(C)(C(F)(F)F)SC2C(=O)Nc2cccc(B(O)O)c2)ccc(F)c1F (stereo not drawn) [Compound 9, (3-(3-(3,4-difluoro-2-methoxyphenyl)-5-methyl-5-(trifluoromethyl)tetrahydrothiophene-2-carboxamido)phenyl)boronic acid] | – | 84.9 | – |
| COc1c([C@@H]2C[C@](C)(C(F)(F)F)S[C@H]2C(=O)Nc2ccnc(S(=O)(=O)N=[N+]=[N-])c2)ccc(F)c1F [a-66-A, 4-((2R,3S,5R)-3-(3,4-difluoro-2-methoxyphenyl)-5-methyl-5-(trifluoromethyl)tetrahydrothiophene-2-carboxamido)pyridine-2-sulfonyl azide] | – | – | IC50: 0.26 nM |

More lines, main results first:

| inhibition at 0.001 µM [%] | inhibition at 0.01 µM [%] | Structure (SMILES) | also measured |
| --- | --- | --- | --- |
| 88.5 | – | COc1c([C@@H]2C[C@](C)(C(F)(F)F)S[C@H]2C(=O)Nc2ccnc(SCN)c2)ccc(F)c1F [a-51-A, (2R,3S,5R)-N-(2-aminomethylthio-4-pyridyl)-3-(3,4-difluoro-2-methoxy-phenyl)-5-methyl-5-(trifluoromethyl)tetrahydrothiophene-2-carboxamide] | – |
| 40.1 | – | COc1c([C@@H]2C[C@](C)(C(F)(F)F)S[C@H]2C(=O)Nc2nn(S(=O)(=O)C(F)(F)F)cc2C)ccc(F)c1F [a-43-A, (2R,3S,5R)-3-(3,4-difluoro-2-methoxyphenyl)-5-methyl-N-(4-methyl-1-((trifluoromethyl)sulfonyl)-1H-pyrazol-3-yl)-5-(trifluoromethane)tetrahydrothiophene-2-carboxamide] | – |
| 72 | – | COc1c([C@@H]2C[C@](C)(C(F)(F)F)S[C@H]2C(=O)Nc2cccc(OS(N)(=O)=O)c2)ccc(F)c1F [a-39-A, (3-((2R,3S,5R)-3-(3,4-difluoro-2-methoxyphenyl)-5-methyl-5-(trifluoromethyl)tetrahydrothiophene-2-carboxamido)phenyl sulfamate] | – |
| – | 80.6 | COc1c(C2CC(C)(C(F)(F)F)SC2C(=O)Nc2ccc3c(c2)S(=O)(=O)N=CN3)ccc(F)c1F (stereo not drawn) [a-28-A, 7-(3-(3,4-difluoro-2-methoxyphenyl)-5-methyl-5-(trifluoromethyl)tetrahydrothiophene-2-carboxamido)-4H-benzo[e][1,2,4]thiadiazine-1,1-dioxide] | – |
| 70.9 | – | COc1c(C2CC(C)(C(F)(F)F)SC2C(=O)Nc2ccc(F)c(N=S(C)(C)=O)c2)ccc(F)c1F (stereo not drawn) [a-15] | – |
| 55.2 | – | COc1c(C2CC(C)(C(F)(F)F)SC2C(=O)Nc2ccc(NC(=O)CN=[N+]=[N-])cc2)ccc(F)c1F (stereo not drawn) [a-75-A, N-(4-(2-azidoacetamido)phenyl)-3-(3,4-difluoro-2-methoxyphenyl)-5-methyl-5-(trifluoromethyl)tetrahydrothiophene-2-carboxamide] | – |
| 69.3 | – | COc1c([C@@H]2C[C@](C)(C(F)(F)F)S[C@H]2C(=O)Nc2ccc(F)c(C=O)c2)ccc(F)c1F [a-84-A, (2R,3S,5R)-3-(3,4-difluoro-2-methoxyphenyl)-N-(4-fluoro-3-formylphenyl)-5-methyl-5-(trifluoromethyl)tetrahydrothiophene-2-carboxamide] | – |
| 81.9 | – | COc1c([C@@H]2C[C@](C)(C(F)(F)F)S[C@H]2C(=O)Nc2ccc(F)c(N=[N+]=[N-])c2)ccc(F)c1F [a-31-A, (2R,3S,5R)-N-(3-azido-4-fluorophenyl)-3-(3,4-difluoro-2-methoxyphenyl)-5-methyl-5-(trifluoromethyl)tetrahydrothiophene-2-carboxamide] | – |
| 74.5 | – | COc1c([C@@H]2C[C@](C)(C(F)(F)F)S[C@H]2C(=O)Nc2cnnc(N=[N+]=[N-])c2)ccc(F)c1F [a-30-A, (2R,3S,5R)-(4-(3-(3,4-difluoro-2-methoxyphenyl)-5-methyl-5-(trifluoromethyl)tetrahydrothiophene-2-carboxamido)-6-azido)pyridazine] | – |
